Experimental data reported in patent US7410757B1, “Method of screening disease depressant gene” (Keio University, priority 1999, dated 2008).
“Also recorded” adds a separate entry of the source. No end group written: not given here.

Columns and labels:
[1] = system: F11 cells; experiment: F11 cell death induced by transfection of FAD genes, trypan blue exclusion assay; type: cell-based
Description: (§1) F11 cells (Platika, D. et al. (1985) Proc. Natl. Acad. Sci. U.S.A. 82, 3499-3503; Yamatsuji, T. et al. (1996) Science 272, 1349-1352) were cultured in HamF-12 media containing 18% fetal bovine serum (FBS) and antibiotics. 7×10^4/well of F11 cells were seeded into a 6-well plate; cultured in HamF-12 containing 18% FBS for 12 to 16 hours; transfected 3 hours with plasmids encoding FAD genes and plasmids encoding HN (pHN, and such) by lipofection in the absence of serum (1 μg of FAD cDNA expression plasmid, 1 μg of HN cDNA expression plasmid, 4 μl of LipofectAMINE, 8 μl of Plus reagent); and then, were cultured for 2 hours in HamF-12 media containing 18% FBS. Then, culture media were exchanged with HamF-12 media containing 10% FBS; and the cells were cultured for additional 67 hours. 72 hours after transfection, cell death was measured by trypan blue exclusion assay. Experiments using synthetic HN polypeptides were conducted as follows: F11 cells (at 7×10^4/well in a 6-well plate) were transfected 3 hours with FAD genes in the absence of serum, as mentioned above; after cultivation for 2 hours in HamF-12 media containing 18% FBS, the cells were cultured for 67 hours in HamF-12 media containing 10% FBS with various concentrations of HN polypeptides; and cell death was measured by trypan blue exclusion assay. ALS-associated mutant cDNAs of SOD1 were also similarly transfected, and examined for their neurotoxicity.
(§2) Trypan blue exclusion assay was performed as follows. Without prewashing, the cells were suspended with gentle pipetting into a serum-free media. 50 μl of 0.4% trypan blue solution (Sigma, Cat. #T-8154) were added (final concentration of 0.08%) to 200 μl cell suspension, and the suspension was mixed at room temperature. Within 3 minutes of the trypan blue solution addition, stained cells were counted. Cell mortality was determined [100−cell survival rate (%)] based on the stained cell count. LDH assay was performed using a kit (LDH-Cytotoxic Test; Wako Pure Chemical Industries, Cat. #299-50601) by sampling 6 μl of media in which neurons were cultured. Calcein staining was performed as described in literature (Bozyczko-Coyne, D. et al. (1993) Journal of Neuroscience Methods 50, 205-216). Specifically, 6 μM Calcein-AM {3′,6′-Di-(O-acetyl)-2′,7′-bis[N,N-bis(carboxymethyl)aminomethyl]fluorescein, tetraacetoxymethyl ester; Dojindo, Cat. #349-07201} was added to the neurons; and 30 minutes or longer after Calcein-AM treatment, fluorescence (ex=490 nm, em=515 nm) was observed by fluorescence microscopy, and measured by a spectrometer. Specific fluorescence was calculated by subtracting basal fluorescence from total fluorescence. Basal fluorescence was assigned to be the value calculated from linear trypan blue positivity-fluorescence intensity relationship, corresponding to 100% trypan blue positivity.

[2] = system: F11/EcR cells; experiment: F11/EcR cell death caused by ecdysone-induced expression of polyglutamine Q79, trypan blue exclusion assay; type: cell-based; details: 1 μM polypeptide, ecdysone 72 h
Description: F11/EcR cell experiment using ecdysone was conducted as follows: F11/EcR cells were seeded at 7×10^4/well into a 6-well plate; cultured for 12 to 16 hours in HamF-12 media containing 18% FBS; and were similarly transfected in the absence of serum for 3 hours with 1 μg of ecdysone-inducible plasmid alone, or with 1 μg of HN-encoding plasmid, as mentioned above. After culturing for 12 to 16 hours in HamF-12 media containing 18% FBS, the cells were cultured for 2 hours in HamF-12 media containing 10% FBS, then ecdysone (Ponasterone) was added to the media (final concentration of 40 μM). Cell death was measured 72 hours after ecdysone treatment. Experiments using synthetic HN polypeptides were conducted as follows: cells were similarly transfected for 3 hours with FAD genes in the absence of serum; cultured for 12 to 16 hours in HamF-12 media containing 18% FBS; cultured for 2 hours in HamF-12 media containing 10% FBS and various concentrations of HN polypeptide; and then, 40 μM Ponasterone was added to the media. Cell death was measured by trypan blue exclusion assay after 72 hours from the ecdysone treatment. HD/SCA-associated Q79 cDNAs were also similarly transfected, and the neurotoxicity was tested.
(§3) Trypan blue exclusion assay was performed as follows. […] Within 3 minutes of the trypan blue solution addition, stained cells were counted. Cell mortality was determined [100−cell survival rate (%)] based on the stained cell count. […] Specifically, 6 μM Calcein-AM {3′,6′-Di-(O-acetyl)-2′,7′-bis[N,N-bis(carboxymethyl)aminomethyl]fluorescein, tetraacetoxymethyl ester; Dojindo, Cat. #349-07201} was added to the neurons; and 30 minutes or longer after Calcein-AM treatment, fluorescence (ex=490 nm, em=515 nm) was observed by fluorescence microscopy, and measured by a spectrometer. Specific fluorescence was calculated by subtracting basal fluorescence from total fluorescence. Basal fluorescence was assigned to be the value calculated from linear trypan blue positivity-fluorescence intensity relationship, corresponding to 100% trypan blue positivity.

[3] = system: F11 cells; experiment: F11 cell death induced by ALS-associated SOD1 mutants (A4T, G85R, G93A), trypan blue exclusion assay; type: cell-based; details: 100 μM polypeptide, G85R or G93A SOD1
Description: as §1
as §3, with “Basal fluorescence was assigned to be the value calculated from linear trypan blue positivity-fluorescence intensity relationship, corresponding to 100% trypan blue positivity.” left out

[4] = system: primary cultured cortical neurons; experiment: Aβ1-43-induced cell death of primary cultured cortical neurons (trypan blue, LDH release, Calcein-AM, morphology); type: cell-based, mouse; details: for effect on Aβ-induced cell death and dystrophic neuritic changes of the axon: 25 μM Aβ1-43, 72 h
Description: Primary culture of mouse cortical neurons was performed in poly-D-lysine-coated 24-well plates (Sumitomo Bakelite) in the absence of serum and in the presence of N2 supplement, as described in literature (Eksioglu, Y. Z. et al. (1994) Brain Res. 644, 282-90). The purity of neurons prepared according to the method was >98%. The prepared neurons (1.25×10^5/well, 250 μl media/well) were preincubated in the absence or presence of 10 nM or 10 μM sHN polypeptides for 16 hours; and were treated with 25 μM Aβ1-43 in the absence or presence of sHN polypeptides at the same concentrations for 24 to 72 hours. Since primary cultured neurons are damaged even by temporary dryness during medium exchange, treatment of the cells by Aβ1-43 was performed as follows. First, half of the volume of the old medium (125 μl) was discarded. Then, 125 μl of pre-warmed fresh medium containing 50 μM Aβ1-43 and sHN with a concentration indicated above were added to the culture.
as §2

[5] = system: F11/EcR cells; experiment: F11/EcR cell death caused by ecdysone-induced expression of FAD genes, trypan blue exclusion assay; type: cell-based; details: treated with 1M sHN (so in the source); NL-APP, V642I APP, M146L PS-1 or N141I PS-2; ecdysone 72 h
Description: F11/EcR cell experiment using ecdysone was conducted as follows: F11/EcR cells were seeded at 7×10^4/well into a 6-well plate; cultured for 12 to 16 hours in HamF-12 media containing 18% FBS; and were similarly transfected in the absence of serum for 3 hours with 1 μg of ecdysone-inducible plasmid alone, or with 1 μg of HN-encoding plasmid, as mentioned above. After culturing for 12 to 16 hours in HamF-12 media containing 18% FBS, the cells were cultured for 2 hours in HamF-12 media containing 10% FBS, then ecdysone (Ponasterone) was added to the media (final concentration of 40 μM). Cell death was measured 72 hours after ecdysone treatment. […] Cell death was measured by trypan blue exclusion assay after 72 hours from the ecdysone treatment. […]
as §3, with “Specific fluorescence was calculated by subtracting basal fluorescence from total fluorescence. Basal fluorescence was assigned to be the value calculated from linear trypan blue positivity-fluorescence intensity relationship, corresponding to 100% trypan blue positivity.” left out

[6] = system: primary cultured neurons; experiment: Etoposide-induced cell death of primary cultured neurons (trypan blue, LDH release); type: cell-based, mouse; details: 10 μM polypeptide, 20 μM etoposide, 72 h
Description: 25 μM Aβ1-43 was added to primary cultured cortical neurons in the presence (at indicated concentrations) or absence of sHN, sHNG, or sHNA. Addition of HN polypeptides was performed similarly to that described in FIG. 12. 72 hours after the initiation of Aβ treatment, cell death was measured by trypan blue exclusion assay. Primary cultured neurons treated similarly for 72 hours with 20 μM etoposide in the presence or absence of 10 μM sHN or HN derivatives were used as the positive controls in these experiments. Similar experiments were performed at least three times, and reproducible results were obtained. Mean ±S.D. values of three independent experiments are indicated in the graphs.
Cell damage was monitored as the amount of LDH released into the culture media. […] 24, 48, or 72 hours after the initiation of Aβ treatment, the amount of LDH in the culture media was measured. LDH release from neurons treated with 20 μM etoposide in the presence or absence of HN polypeptides was also measured. […]
Trypan blue exclusion assay was performed as follows. […] Within 3 minutes of the trypan blue solution addition, stained cells were counted. Cell mortality was determined [100−cell survival rate (%)] based on the stained cell count. […] Specific fluorescence was calculated by subtracting basal fluorescence from total fluorescence. […]

[7] = 10 μM polypeptide, 25 μM Aβ1-43

## CC[C@H](C)[C@H](NC(=O)[C@H](CCC(=O)O)NC(=O)[C@H](CO)NC(=O)[C@@H](NC(=O)[C@H](CC(C)C)NC(=O)[C@H](CC(C)C)NC(=O)[C@H](CC(C)C)NC(=O)[C@H](CC(C)C)NC(=O)[C@H](CS)NC(=O)[C@H](CO)NC(=O)[C@H](Cc1ccccc1)NC(=O)CNC(=O)[C@H](CCCNC(=N)N)NC(=O)[C@@H]1CCCN1C(=O)[C@H](C)NC(=O)[C@@H](N)CCSC)[C@@H](C)O)C(=O)N[C@@H](CC(=O)O)C(=O)N[C@@H](CC(C)C)C(=O)N1CCC[C@H]1C(=O)N[C@H](C(=O)N[C@@H](CCCCN)C(=O)N[C@@H](CCCNC(=N)N)C(=O)N[C@@H](CCCNC(=N)N)C(=O)N[C@@H](C)C(=O)O)C(C)C [sHN]
[1]; 10 nM polypeptide, 72 h
  suppression of cell death induced by V642I APP: extremely weak suppression
[1]; 10 μM polypeptide, 72 h
  suppression of cell death induced by V642I APP: dramatically suppressed
[1]; 72 h
  concentration achieving complete suppression of cell death induced by V642I APP: 1 to 10 µM
[1]; any of the three FAD genes, 72 h
  concentration blocking neuronal death induced by NL-APP, M146L PS-1 and N141I PS-2: 1 µM
[2]
  effect of synthetic polypeptide on neuronal death induced by Q79: not suppressed; also recorded: lack of effects
[3]
  effect of synthetic polypeptide on neuronal death induced by SOD1 mutants: couldn't be suppressed; also recorded: lack of the effect
[4]; 10 nM polypeptide
  effect on Aβ-induced cell death and dystrophic neuritic changes of the axon: did not show any effect
[4]; [7]
  cell damage (LDH released from the cells) after Aβ1-43 treatment: completely restored to a level observed under basal conditions
  cell death (trypan blue exclusion) after Aβ1-43 treatment: completely restored to a level observed under basal conditions
[4]; 10 μM polypeptide
  effect on Aβ-induced cell death and dystrophic neuritic changes of the axon: dramatically suppressed
[5]
  effect of synthetic polypeptide on cell death caused by ecdysone-induced expression of FAD genes: complete suppression; also recorded: significant suppressive effect
[6]
  prevention of the toxic effect of etoposide on primary cultured neurons: could not prevent

## MAPRGFSALLLLTSEIDLPVKRRA [sHNA]
[1]; concentrations up to 100 μM
  suppression of cell death induced by V642I APP: did not significantly suppress
[1]; up to a concentration of 100 μM
  antagonism of cell death by NL-APP, M146L PS-1 and N141I PS-2: did not antagonize
[2]
  effect of synthetic polypeptide on neuronal death induced by Q79: Extensive cell death; also recorded: lack of effects
[3]
  effect of synthetic polypeptide on neuronal death induced by SOD1 mutants: couldn't be suppressed; also recorded: lack of the effect
[4]; 10 μM polypeptide
  effect on Aβ-induced cell death and dystrophic neuritic changes of the axon: did not show any effect

## MAPRGFSCLLLLTGEIDLPVKRRA [sHNG]
[1]; 72 h
  concentration giving complete antagonizing effect on cell death induced by V642I APP: ≤ 10 nM
[1]; V642I APP, NL-APP, M146L PS-1, N141I PS-2
  concentration completely antagonizing neuronal death induced by all of the four different types of FAD genes: ≤ 10 nM
[1]; any of the FAD genes, 72 h
  concentration completely suppressing cell death caused by NL-APP, M146L PS-1 and N141I PS-2: ≤ 10 nM
[1]; relative to original HN
  enhancement of the action of HN by S14G substitution: 100 to 1000 fold
[2]
  effect of synthetic polypeptide on neuronal death induced by Q79: Extensive cell death; also recorded: lack of effects
[3]
  effect of synthetic polypeptide on neuronal death induced by SOD1 mutants: couldn't be suppressed; also recorded: lack of the effect
[4]; 10 nM polypeptide
  effect on Aβ-induced cell death and dystrophic neuritic changes of the axon: completely protected
[5]
  effect of synthetic polypeptide on cell death caused by ecdysone-induced expression of FAD genes: complete suppression

## NGF: NGF tested at 100 ng/ml as comparator [reference compound]
[4]; 100 ng/ml, data not shown
  antagonism of cell death of neurons induced by Aβ: did not show effects to antagonize
  antagonism of increased LDH release induced by Aβ: did not show effects to antagonize
